# Reference: PMC11778240, “Synthesis and preclinical evaluation of tigilanol tiglate analogs as latency-reversing agents for the eradication of HIV” (Science Advances, 2025)
# System: NF-κB pathway
# Assay: NF-κB activation assay, A549 cells with SEAP reporter
# Assay type: cell-based, Human
# Details: 50 nM; 24 hours
# Text: As a high-throughput method of screening compounds for their ability to get into cells and activate immunological pathways related to HIV latency reversal ([46], [70]), we conducted an NF-κB reporter assay using A549 cells stably integrated with a secreted embryonic alkaline phosphatase reporter under the control of a promoter fused to five NF-κB binding sites (Fig. 7B) ([48], [70], [71]).
# Human A549-Dual™ Cells supplied by InvivoGen (Cat. code a549d-nfis) and CHO-K1 cells were passaged when about 90% confluency was reached (approximately every three days). With each passage, media was aspirated from the cell layer, which was then washed with PBS. Following aspiration of the PBS, cells were detached from the culture flask with 0.25% GibcoTM Trypsin-EDTA and transferred to a 50 mL conical, which was volumed up with complete pre-warmed DMEM (4.5 g/L glucose, 10% FBS, and 1% Pen-Strep-Glutamine (100 X, 50 mg/mL)) or Ham's F-12K (Kaighn's) Medium supplemented with 10% FBS and 1% Pen-Strep (100 X, 50 mg/mL).
# This conical was spun down at 1800 rpm for 3 minutes, the supernatant was removed, and cells were resuspended in their respective fresh, pre-warmed media. To count cells, 10 μL of resuspended cells were added to a sterile microcentrifuge tube and mixed with 10 μL of trypan blue after which 10 μL of the mixture was pipetted into a Countess chamber slide. A Countess™ 3 Automated Cell Counter was subsequently utilized to determine cell viability and concentration.
# 1 x 10^6 cells were seeded with each passage into a T75 culture flask, and cells were incubated at […]
# Human A549 lung carcinoma cells (InvivoGen Cat. code a549d-nfis), stably integrated with a secreted embryonic alkaline phosphatase (SEAP) reporter, allow for the activity of the NF-κB pathway to be monitored. The SEAP reporter is under control of the interferon β (IFN-β) minimal promoter, which is fused to five NF-κB binding sites.
# 5 × 10^4 A549 cells were plated on Corning® 96 Well TC-Treated Microplates (CLS3595) in 180 μl of pre-warmed DMEM (4.5 g/L glucose, 10% heat-inactivated FBS (30 min at 56 ℃), and 1% Pen-Strep-Glutamine (100 X, 50 mg/mL)). Note that if cells were grown in media containing FBS that is not heat-inactivated, media will contain alkaline phosphatase. In this case, all supernatant must thoroughly be aspirated from the cell pellet obtained after centrifugation before resuspending cells in media containing heat inactivated FBS for plating. Following incubation at 37 °C in 5% CO2 for approximately 24 hours to allow for cell adherence onto the 96 well plate, 1.8 μL of each compound dissolved in DMSO was added in quadruplicate to their respective wells to achieve a final compound concentration of 1500 nM, 500 nM, or 50 nM. 1.8 μL of DMSO was added to wells as negative controls while wells treated with EBC-46 served as positive controls. 24 hours following compound addition, 180 μL of QUANTI-BlueTM Solution (InvivoGen Cat. code rep-qbs)- medium containing QB buffer and QB Reagent for detection and quantification of alkaline phosphatase- were added into wells on a new clear flat-bottom 96-well plate. 20 μL of supernatant of either SEAP-expressing cells incubated with compound or SEAP-expressing cells incubated with DMSO only were added to the wells in the new 96-well plate containing QUANTI-BlueTM Solution. Supernatant and QUANTI-BlueTM Solution were incubated at 37 °C in 5% CO2 for approximately an hour and a half. Following incubation, optical density (OD) at 630 nm was measured for each well using a BioTek Synergy H1 microplate reader under normal read speed and with a delay of 100 msec.
row,Compound,"NF-κB activation, times the basal level (DMSO control)"
1,C/C=C(\C)C(=O)O[C@@H]1[C@@H](C)[C@@]2(O)[C@H]([C@@H]3C(C)(C)[C@]13OC(=O)Cc1cccc3ccccc13)[C@@H]1O[C@]1(CO)[C@@H](O)[C@]1(O)C(=O)C(C)=C[C@H]12 [SUW431],approximately three

# Same assay, conditions: 50 nM; 24 hours after dosing; A549 cells
row,Compound,"NF-κB activation (optical density, 630 nm)"
1,CC=C(C)C(=O)OC1C(C)C2(O)C(C3OC3(COC)C(O)C3(O)C(=O)C(C)=CC32)C2C(C)(C)C12OC(=O)C(C)CC (stereo not drawn) [SUW426],"0.23 optical density, 630 nm"
2,C/C=C(\C)C(=O)O[C@@H]1[C@@H](C)[C@@]2(O)[C@H]([C@@H]3C(C)(C)[C@]13OC(=O)c1ccccc1)[C@@H]1O[C@]1(CO)[C@@H](O)[C@]1(O)C(=O)C(C)=C[C@H]12 [SUW428],"0.31 optical density, 630 nm"
3,CC[C@H](C)C(=O)O[C@@]12[C@H](OC(C)(C)C)[C@@H](C)[C@@]3(O)[C@H]([C@@H]1C2(C)C)[C@@H]1O[C@]1(CO)[C@@H](O)[C@]1(O)C(=O)C(C)=C[C@H]13 [SUW430],"0.30 optical density, 630 nm"
4,C/C=C(\C)C(=O)O[C@@H]1[C@@H](C)[C@@]2(O)[C@H]([C@@H]3C(C)(C)[C@]13OC(=O)Cc1cccc3ccccc13)[C@@H]1O[C@]1(CO)[C@@H](O)[C@]1(O)C(=O)C(C)=C[C@H]12 [SUW431],"0.74 optical density, 630 nm"

# Same assay, conditions: 500 nM; 24 hours after dosing; A549 cells
row,Compound,"NF-κB activation (optical density, 630 nm)"
1,CC=C(C)C(=O)OC1C(C)C2(O)C(C3OC3(COC)C(O)C3(O)C(=O)C(C)=CC32)C2C(C)(C)C12OC(=O)C(C)CC (stereo not drawn) [SUW426],"0.23 optical density, 630 nm"
2,C/C=C(\C)C(=O)O[C@@H]1[C@@H](C)[C@@]2(O)[C@H]([C@@H]3C(C)(C)[C@]13OC(=O)c1ccccc1)[C@@H]1O[C@]1(CO)[C@@H](O)[C@]1(O)C(=O)C(C)=C[C@H]12 [SUW428],"0.43 optical density, 630 nm"
3,CC[C@H](C)C(=O)O[C@@]12[C@H](OC(C)(C)C)[C@@H](C)[C@@]3(O)[C@H]([C@@H]1C2(C)C)[C@@H]1O[C@]1(CO)[C@@H](O)[C@]1(O)C(=O)C(C)=C[C@H]13 [SUW430],"0.67 optical density, 630 nm"
4,C/C=C(\C)C(=O)O[C@@H]1[C@@H](C)[C@@]2(O)[C@H]([C@@H]3C(C)(C)[C@]13OC(=O)Cc1cccc3ccccc13)[C@@H]1O[C@]1(CO)[C@@H](O)[C@]1(O)C(=O)C(C)=C[C@H]12 [SUW431],"0.65 optical density, 630 nm"

# Same assay, conditions: 50 and/or 500 nM; 24 hours; A549 cells
row,Compound,NF-κB activation in words
1,CC=C(C)C(=O)OC1C(C)C2(O)C(C3OC3(COC)C(O)C3(O)C(=O)C(C)=CC32)C2C(C)(C)C12OC(=O)C(C)CC (stereo not drawn) [SUW426],did not exhibit NF-κB activation at either concentration tested
2,C/C=C(\C)C(=O)O[C@@H]1[C@@H](C)[C@@]2(O)[C@H]([C@@H]3C(C)(C)[C@]13OC(=O)c1ccccc1)[C@@H]1O[C@]1(CO)[C@@H](O)[C@]1(O)C(=O)C(C)=C[C@H]12 [SUW428],less effective at inducing NF-κB activation than EBC-46 at 500 nM
3,CC[C@H](C)C(=O)O[C@@]12[C@H](OC(C)(C)C)[C@@H](C)[C@@]3(O)[C@H]([C@@H]1C2(C)C)[C@@H]1O[C@]1(CO)[C@@H](O)[C@]1(O)C(=O)C(C)=C[C@H]13 [SUW430],performed comparably to EBC-46 at both concentrations
4,C/C=C(\C)C(=O)O[C@@H]1[C@@H](C)[C@@]2(O)[C@H]([C@@H]3C(C)(C)[C@]13OC(=O)Cc1cccc3ccccc13)[C@@H]1O[C@]1(CO)[C@@H](O)[C@]1(O)C(=O)C(C)=C[C@H]12 [SUW431],strong activation of NF-κB at higher concentrations but with an inverse dose response

# System: J-Lat clone 10.6 cells
# Assay: J-Lat HIV latency reversal assay (GFP expression)
# Assay type: cell-based, Human
# Details: 40 nM; J-Lat 10.6; 48 hours
# Text: Having shown that our lead compounds bind cell-free PKC isoforms, enter cells, translocate PKC-GFP fusion proteins, and activate NF-κB transcription factors, we next set out to determine whether our analogs were capable of reversing HIV from latency. We performed in vitro assays using T lymphocyte J-Lat clone 10.6, which contains a latent near full-length replication-incompetent integrated HIV DNA genome ([72]). J-Lat 10.6 lacks two viral genes, env and nef, which encode for the envelope protein and an accessory protein, respectively, and thus cannot initiate a spreading HIV infection. The integrated HIV provirus also encodes a GFP reporter gene, allowing latency reversal to be measured by quantification of GFP expression (fig. S1). […] In this latency reversal assay, we quantified GFP expression 48 hours after compound addition and observed bryostatin 1 to be maximally effective at concentrations of 40 nM or higher with latency reversal in 12% of cells (Fig. 8). Given the efficacy of bryostatin 1 as an LRA ([73], [74]), EBC-46 and many of its analogs tested in this J-Lat assay induced latency reversal in >90% of cells. […] SUW427, an esterase-releasable prodrug of EBC-46, also performed similarly to EBC-46 with a maximum efficacy of latency reversal in >90% of cells at a dose of 250 nM. […] The gradual release of EBC-46 from its prodrug form provides an alternative mode of administration that avoids the bolus effect associated with rapid drug administration ([17]). […] This is consistent with its lack of activity in the NF-κB activation assay and its design as a negative control as it is structurally similar to EBC-46 but unable to bind to the C1 domain of PKC at the concentrations used in this assay as it lacks a complete pharmacophore.
# HIV latency reversal in-vitro assay
# Human T Lymphocyte J-Lat Full Length Cell Line 10.6 (cat #9849) was obtained through the NIH HIV Reagent Program, Division of AIDS, NIAID, NIH and was contributed to the NIH HIV Reagent Program by Dr. Eric Verdin (70). J-Lat 10.6 cells were plated at 5 × 10^5 cells in 180 μL of RF10 media consisting of RPMI media supplemented with 1% Penicillin/Streptomycin and 10% Fetal Bovine Serum (FBS) in 96 -well U -bottom plates. J -Lat 10.6 cells were then stimulated for 48 hr by adding 20 μL of newly designed and synthesized tigilanol tiglate analogs, PKC modulators (bryostatin 1) as our positive control or med ia only (mock) as our negative control. Our negative control was RF10 media as the tigilanol tiglate analogs were freshly diluted with RF10 prior to plating. The final volume was 200 μL per well. Experiments were performed in three independent biological replicates, each completed in technical duplicates (n = 6). After 48 hr stimulation, 96 - well U -bottom plates were centrifuged at 296 RCF for 7 minutes to pellet cells, which were resusp ended in 200 μL of freshly prepared 2% paraformaldehyde (PFA) in PBS. GF P expression was measured 24 -hours post -fixation using the FITC channel on a LSR Fortessa (BD Biosciences) flow cytometer. Data analysis was conducted with FlowJo software version 10.8.1.
row,Compound,"latency reversal, % of cells"
1,C/C=C(\C)C(=O)O[C@@H]1[C@@H](C)[C@@]2(O)[C@H]([C@@H]3C(C)(C)[C@]13OC(=O)Cc1cccc3ccccc13)[C@@H]1O[C@]1(CO)[C@@H](O)[C@]1(O)C(=O)C(C)=C[C@H]12 [SUW431],90 % of cells

# Same assay, conditions: J-Lat 10.6; ascending concentrations; 48 hours
row,Compound,HIV latency reversal in words
1,CC=C(C)C(=O)OC1C(C)C2(O)C(C3OC3(COC)C(O)C3(O)C(=O)C(C)=CC32)C2C(C)(C)C12OC(=O)C(C)CC (stereo not drawn) [SUW426],did not produce latency reversal at any tested concentration
2,C/C=C(\C)C(=O)O[C@@H]1[C@@H](C)[C@@]2(O)[C@H]([C@@H]3C(C)(C)[C@]13OC(=O)c1ccccc1)[C@@H]1O[C@]1(CO)[C@@H](O)[C@]1(O)C(=O)C(C)=C[C@H]12 [SUW428],required a higher dose than EBC-46 before we detected reversal activity
3,CC[C@H](C)C(=O)O[C@@]12[C@H](OC(C)(C)C)[C@@H](C)[C@@]3(O)[C@H]([C@@H]1C2(C)C)[C@@H]1O[C@]1(CO)[C@@H](O)[C@]1(O)C(=O)C(C)=C[C@H]13 [SUW430],required a higher dose than EBC-46 before we detected reversal activity
4,C/C=C(\C)C(=O)O[C@@H]1[C@@H](C)[C@@]2(O)[C@H]([C@@H]3C(C)(C)[C@]13OC(=O)Cc1cccc3ccccc13)[C@@H]1O[C@]1(CO)[C@@H](O)[C@]1(O)C(=O)C(C)=C[C@H]12 [SUW431],effectively activates latent HIV at substantially lower concentrations than EBC-46
